Reference: patent publication US20140142000A1, “MICROFLUIDIC ARRAY PLATFORM FOR SIMULTANEOUS CELL CULTURE UNDER OXYGEN TENSIONS” (Academia Sinica, priority 2012, published 2014)

How the values were obtained:
[1] = system: A549 cells; assay: PrestoBlue normalized cell viability of A549 cells treated with TPZ under various oxygen tensions on the array platform (48 hours); assay type: cell-based, human
Experimental: In the experiments, 1 M NaOH and pyrogallol solutions with concentrations of 0, 190, and 500 μg ml^−1 at flow rates of 20 μml^−1 were used to set the oxygen tensions inside the cell culture wells as normoxia (˜20%), 7.0%, and 1.4%, respectively, and the drug, TPZ, with concentrations of 0, 10, 25, 50, and 100 mM were applied. The cells were cultured under different conditions, including: 20% oxygen and 0 mM TPZ; 20% oxygen and 50 mM TPZ; and 1.4% oxygen and 50 mM TPZ, for 48 hours. […] Furthermore, the cell viability was checked using a live/dead stain solution containing calcein AM (1 mM) and ethidium homodimer-1 (2 mM) from LIVE/DEAD Viability/Cytotoxicity Kit (L3224, Invitrogen). […] To quantitatively characterize the cell viabilities of A549 cells treated with TPZ under various oxygen tensions, the PrestoBlue cell viability assays were performed in the experiments. […] In order to minimize variations between the experiments, the measured fluorescence intensity from each well was normalized to the average intensity of the cell culture wells, in which the cells were cultured under normoixa without TPZ (i.e. 0 mM TPZ). To compare the differences between the normalized cell viabilities for various oxygen tensions, statistical analysis, unpaired, two-tailed Student's t-tests were performed in this study.

[2] = system: A 549 cells; assay: Fluorescence-based cell viability in conventional 96-well plates with oxygen tension-controlled incubator, compared with the device; design: species or system human; conditions: 96-well plate, 48 hours, normoxia and hypoxia
Experimental: A comparison of cell viabilities under various drug treatments in normoxia and hypoxia conditions using the cell culture array platform according to the invention and conventional 96-well plates (167008, Nunclon DELTA Surface, Nunc) with an oxygen tension-controlled cell incubator (Heracell 240i, Thermo Scientific). In the well plate experiments, approximate 5000 A 549 cells were seeded into each well. The cells with 80 μl medium were incubated overnight in the cell incubator to ensure the cell attachment onto the wells before the drug treatments, and 20 μl drug solutions with various TPZ concentrations were than added into the wells. The cells were incubated with drug-contained medium for 48 hours. After the testing, the cell viabilities were estimated using the fluorescence-based cell viability assay, and read by the plate reader.

[3] = system: A549 cells; assay: Cell morphology and attachment of A549 cells cultured with TPZ on the array platform; assay type: cell-based, human; conditions: 48 hours
Experimental: In the experiments, 1 M NaOH and pyrogallol solutions with concentrations of 0, 190, and 500 μg ml^−1 at flow rates of […] were used to set the oxygen tensions inside the cell culture wells as normoxia (˜20%), 7.0%, and 1.4%, respectively, and the drug, TPZ, with concentrations of […] were applied. The cells were cultured under different conditions, including: 20% oxygen and 0 mM TPZ; 20% oxygen and 50 mM TPZ; and 1.4% oxygen and 50 mM TPZ, for 48 hours. […] Furthermore, the cell viability was checked using a live/dead stain solution containing calcein AM (1 mM) and ethidium homodimer-1 (2 mM) from LIVE/DEAD Viability/Cytotoxicity Kit (L3224, Invitrogen). The great viability (>95% by analyzing four fluorescence images taken in different cell culture wells using an image analysis software MetaMorph from Molecular Devices, Sunnyvale, Calif.) of the cells cultured under the control conditions for 48 hours confirmed the great cell compatibility of the multi-layer PDMS microfluidic device according to the invention. […] To quantitatively characterize the cell viabilities of A549 cells treated with TPZ under various oxygen tensions, the PrestoBlue cell viability assays were performed in the experiments. The developed microfluidic array platform can be directed placed into a microplate reader commonly used in biological labs for assay readout. […]

[4] = in vitro; assay type: cell-based; conditions: human
Experimental: To examine the performance of the array on a chip form for cell culture, carcinomic human alveolar basal epithelial cells (A549, ATCC, Manassas, Va., USA) were utilized. A549 cells were cultured in F-12K medium (Gibco 21127, Invitrogen Co., Carlsbad, Calif., USA) with 10% v/v fetal bovine serum (FBS) (Gibco 10082, Invitrogen Carlsbad, Calif., USA) and 1% v/v antibiotic-antimycotic (Gibco 15240, Invitrogen, Carlsbad, Calif., USA). The stocks were maintained under 5% CO2 in T25 cell culture flasks (Nunc 156367, Thermo Scientific Inc., Rochester, N.Y., USA), and passaged by dissociation with 0.25% trypsin-EDTA (Gibco 25200, Invitrogen, Carlsbad, Calif., USA). […]
For oxygen scavenging, pyrogallol (benzene-1,2,3-triol, C6H6O3) (87-66-1, Alfa Aesar, Ward Hill, Mass., USA) and sodium hydroxide (NaOH) (30620, Sigma-Aldrich, St Louis, Mo., USA) were introduced into the microfluidic channels to control oxygen tensions. The oxygen tensions in the cell culture wells were calibrated by measuring the relative fluorescence lifetime of an oxygen sensitive fluorescence dye, tris(2,2′-bypyridyl) ruthenium […] chloride (50525-27-4, Acros Organics, Geel, Belgium), while flowing chemicals in the underneath channels with various concentrations using the experimental setup as shown in FIG. 2(a). […]

Nc1n[n+]([O-])c2ccccc2[n+]1[O-] [TPZ, 3-amino-1,2,4-benzotriazine-1,4-dioxide]
normalized cell viability at 1.4% oxygen tension versus 7.0% oxygen tension [1]: lower statistically than that for the 7.0% oxygen tension condition
normalized cell viability, normoxia higher than low oxygen tensions (7.0% and 1.4%) ([1]; TPZ concentrations higher than 25 mM, normalized to normoxia without TPZ): more than 20%
hypoxia-activated cytotoxicity in well plates compared with the device [2]: more hypoxia-activated cytotoxicity
cell morphology / attachment ([3]; 1.4% oxygen and 50 mM TPZ): more cells became rounded and detached from the substrate
cell morphology / attachment ([3]; 20% oxygen and 50 mM TPZ): the shapes of the cells became rounded and some cells detached from the substrate
cytotoxicity at 12 h [4]: > 20%
